These results are taken from patent publication US4246270A, “3-Fluorobenzodiazepines and compositions and uses thereof” (E. I. Du Pont de Nemours and Company, priority 1976, dated 1981).

Like-named read-outs stand apart in the source and are kept apart here.

The conditions of data set [1]: warming in alcohol; cited from earlier work.
For data set [2], the system named is morphine-induced Straub tail. The data set is described as follows: Muscle relaxant (anti-Straub tail) test. Format: in vivo. Particulars: 0.5 h; mouse, oral (intubated), 30 minutes; blockade of morphine-induced Straub tail (53.7 mg/kg sc). The source says: (§1) Standard procedures for detecting and comparing the tranquilizer, muscle-relaxant, and sedative activity of compounds in this series for which there is a correlation with human efficacy are the following: pinna reflex tests, antipentylenetetrazole test, rat activity suppression test (RAST), muscle relaxant (anti-straub tail) test, and mouse activity suppression test (MAST).
Fasted female white mice, 5 per dose are intubated with test drug. Twenty-five minutes later morphine sulfate is given subcutaneously at 53.7 mg/kg. Thirty minutes after test drug the mice are observed for presence of Straub tail. Quantal ED50 values for blockade of morphine-induced Straub tail are calculated.
(§2) Potency in the antipentylenetetrazole (PTZ), the MAST, and the RAST tests indicates a potent antianxiety agent. Great potency for blockade of the mouse auditory pinna reflex with little or no effect on tactile pinna reflex is characteristic of minor tranquilizers.

Data set [3] has as its system auditory pinna reflex. In words: Auditory pinna reflex test (mouse). Format: in vivo. Particulars: 0.5 h, oral (intubated), 30 minutes. As to the method: as §1
(§3) Fasted female white mice, 5 per dose are intubated with drug at 4, 12, 36, 108 and 324 mg/kg in 1% Methocel®^- 1.25% Tween 80®, at 10 ml/kg. The auditory and tactile pinna are tested at 0.5, 2, 5 and 24 hours.
The mouse is placed on a horizontal bar 9 cm from a Galton whistle adjusted for 13 Kc. Failure to flatten the ears during one or 2 short bursts of sound constitutes loss of auditory pinna reflex.
as §2

The test system of data set [4] is tactile pinna reflex. The data set is described as follows: Tactile pinna reflex test (mouse). The class given is in vivo. Particulars: 0.5 h, oral (intubated), 30 minutes. As to the method: as §1, §3
The mouse is held by the tail and the hairs inside the right ear are touched by the fine wire stylus from a 27 gauge needle. Failure of the mouse to twitch or move the head constitutes loss of the tactile pinna reflex.
as §2

Data set [5] relates to line crossings suppressed by shock. The data set is described as follows: Rat activity suppression test (RAST). Format: in vivo. Particulars: 0.5 h, oral (intubated), 30 minutes, dose which would increase crossings 50% over controls.
Text: as §1
The test apparatus consists of a circular cage with lid and with a floor of electrifiable steel bars. D.C. shock current is supplied to the bars such that touching any 2 alternate bars shocks the rat. The floor is marked to yield 4 equal pie-shaped sectors.
Fasted male white rats, 10 per dose are intubated with drug as described above for mice. Thirty minutes after dosing a rat is placed in the test apparatus and is allowed 30 seconds to transverse 25% of the floor area after which he receives a shock. The rat is allowed 5 seconds to recover from the shock, then its "line crossings" are counted for 60 seconds. The mean number of crossings per rat for each dose are determined and are compared to the mean number of crossings of the vehicle treated controls. ED50 %, the dose which would increase the number of crossings 50% over controls, is determined graphically.
as §2

Data set [6] concerns PTZ-induced clonic convulsions. In words: Antipentylenetetrazole (PTZ) test. Format: in vivo. The following applies: mouse; for ED50: 0.5 h, oral (intubated), 30 minutes before PTZ 40 mg/kg iv, read-out: Anti-PTZ, mouse ED50. As to the method:
as §1
Fasted female white mice, 10 per dose are intubated with drug in vehicle as above at doses such as 0, 1, 3, 9, 27 and 81 mg/kg. Thirty minutes later the mice are dosed intravenously with PTZ (Metrazol®^1) at 40 mg/kg (ED98 for clonic convulsions). Dosed animals which remain on a 4"×4" platform for 20 seconds are considered protected. Quantal ED50 's are calculated by the moving average method.
1 Original brand of pentylenetetrazole; sterile 10% aqueous solution for parenteral injection, Knoll Pharmaceutical Company.
as §2

Data set [7] has as its system suppression of exploratory locomotor behavior by punishment. The data set is described as follows: Mouse activity suppression test (MAST). Format: in vivo. Particulars: oral, footnote *ED20%.
Text: as §1
The Mouse Activity Suppression Test (MAST) is a model system designed to detect compounds with possible anti-anxiety activity in humans. […] The punishment, an electric shock applied through the mouse's paws, quickly extinguishes normal behavior.
The test procedure is modified from Boissier, et al., European J. Pharm., 4, 145-151 (1968). Female white mice, fasted 16-22 hours, are randomly distributed to fiberglass holding boxes. Mice in groups of 10-20 are dosed orally and returned to their holding boxes until test time. Test drug suspensions or solutions are prepared by sonication in 1% Methocel®. Typical dose ranges include 0.5, 1, 2, and 4 mg/k or 1, 3, 9, 27, 81 mg/kg plus a vehicle control and are selected to include one dose at which an effect such as sedation, stimulation, muscle weakness or analgesia was seen.
The test apparatus is an opaque, black plastic box with a clear lid and a stainless steel grid floor. The floor of the test box is marked off into four squares of equal size.
After dosing, a mouse is gently place in one corner of the testing box and during the next minute each time the mouse makes a full crossing from one square section of the box to another the floor is electrified with 0.4 ma current for 2.0 seconds.
The number of shocks received by each mouse is recorded and the mean number of shocks/dose (X) is determined. When X drug at any dose is statistically greater than X controls (Student's t test), antagonism of suppression obtains and the drug is presumed to have anti-anxiety activity.
as §2

For data set [8] the following is noted: man and other animals; cited from earlier work.
Setting [9] is: 0.5 h, 30 minutes, read-out: MAST, ED20%.

As a reminder, the ED50 is the midpoint of the dose-response relation.

Take `O=C1Nc2ccc(Cl)cc2C(c2ccccc2)=NC1Cl` (stereo not drawn) [3,7-dichloro-5-phenyl-1,3-dihydro-2H-1,4-benzodiazepin-2-one]: the “stability (3-chloro derivative)” value in data set [1] is given as “extremely reactive: mere warming in alcohol caused decomposition”.

For the compound `CNC1=Nc2ccc(Cl)cc2C(c2ccccc2)=[N+]([O-])C1` [Chlorodiazepoxide, reference compound], the ED50 is 1.9 mg/kg in data set [2]; 70 mg/kg in data set [3]; 320 mg/kg in data set [4]; 6 mg/kg in data set [5]; 7.5 mg/kg in data set [6]. In addition, the ED20 in data set [7] (setting [9]) came to 8.5 mg/kg.

For the compound `CN1C(=O)CN=C(c2ccccc2)c2cc(Cl)ccc21` [Diazepam, reference compound], the ED50 in data set [2] stood at 1 mg/kg; in data set [3], 4 mg/kg; in data set [4] it was 187 mg/kg; in data set [5], 1.5 mg/kg; in data set [6] it was 0.49 mg/kg. Further, the ED20 in data set [7] (setting [9]) worked out at 1.1 mg/kg.

Take `O=C1Nc2ccc(Cl)cc2C(c2ccccc2)=NC1O` (stereo not drawn) [Oxazepam, reference compound]: the ED50 in data set [2] came to 0.26 mg/kg; in data set [3], 2.9 mg/kg; in data set [5] it was 2.5 mg/kg; in data set [6], 2 mg/kg. The ED20 in data set [7] (setting [9]) was 2.7 mg/kg.

Compound `C1CCc2nnnn2CC1` [PTZ, pentylenetetrazole, reference compound] displayed an ED98 in data set [6] (intravenous PTZ challenge) of 40 mg/kg.

Regarding `CN1C(=O)C(F)N=C(c2ccccc2F)c2cc(Br)ccc21` (stereo not drawn) [X=Br, Y=F, Z=CH3, 3-Fluoro-7-bromo-5-(2-fluorophenyl)-1,3-dihydro-1-methyl-2H-1,4-benzodiazepin-2-one], the results for the ED50 in data set [3], in data set [4] and in data set [6] were less than 4 mg/kg, less than 324 mg/kg and 0.06 mg/kg, respectively.

Regarding `O=C1Nc2ccc(Br)cc2C(c2ccccc2F)=NC1F` (stereo not drawn) [X=Br, Y=F, Z=H, 3-Fluoro-7-bromo-5-(2-fluorophenyl)-1,3-dihydro-2H-benzodiazepin-2-one], the ED50 is less than 4 mg/kg in data set [3], 300 mg/kg in data set [4] and 0.12 mg/kg in data set [6].

As for `CN1C(=O)C(F)N=C(c2ccccc2)c2cc(Br)ccc21` (stereo not drawn) [X=Br, Y=H, Z=CH3, 3-Fluoro-7-bromo-1,3-dihydro-1-methyl-5-phenyl-2H-1,4-benzo-diazepin-2-one], the ED50 in data set [3] stood at 1.3 mg/kg; in data set [4] it was 300 mg/kg; in data set [5], 1.7 mg/kg; in data set [6] it was 0.22 mg/kg. Besides, in data set [7] (setting [9]), the ED20 came out at 0.16 mg/kg.

Take `O=C1Nc2ccc(Br)cc2C(c2ccccc2)=NC1F` (stereo not drawn) [X=Br, Y=H, Z=H, 3-Fluoro-7-bromo-1,3-dihydro-5-phenyl-2H-1,4-benzodiazepin-2-one]: the ED50 worked out at 0.05 mg/kg in data set [2]; 1.2 mg/kg in data set [3]; 100 mg/kg in data set [4]; 0.15 mg/kg in data set [5]; 0.74 mg/kg in data set [6]. Moreover, in data set [7] (setting [9]), the ED20 turned out to be 0.04 mg/kg.

Regarding `CN1C(=O)C(F)N=C(c2ccccc2Cl)c2cc(Cl)ccc21` (stereo not drawn) [X=Cl, Y=Cl, Z=CH3, 3-Fluoro-7-chloro-5-(2-chlorophenyl)-1,3-dihydro-1-methyl-2H-1,4-benzodiazepin-2-one], the values for the median effective dose (ED50) in data set [3], in data set [4] and in data set [6] were 60 mg/kg, greater than 324 mg/kg and 0.09 mg/kg, respectively.

For `O=C1Nc2ccc(Cl)cc2C(c2ccccc2Cl)=NC1F` (stereo not drawn) [X=Cl, Y=Cl, Z=H, 3-Fluoro-7-chloro-5-(2-chlorophenyl)-1,3-dihydro-2H-1,4-benzodiazepin-2-one], the ED50 in data set [2] was less than 0.33 mg/kg; in data set [3] it was less than 4 mg/kg; in data set [4], greater than 324 mg/kg; in data set [6], 0.34 mg/kg. For the same compound, the ED20 in data set [7] (setting [9]) turned out to be 1.15 mg/kg.

As to `CN1C(=O)C(F)N=C(c2ccccc2F)c2cc(Cl)ccc21` (stereo not drawn) [X=Cl, Y=F, Z=CH3, 3-Fluoro-1,3-dihydro-1-methyl-7-chloro-5-(2-fluorophenyl)-2H-1,4-benzodiazepin-2-one], the ED50 in data set [2] came to 0.06 mg/kg; in data set [3] it was 7 mg/kg; in data set [4] it was 200 mg/kg; in data set [5], 0.24 mg/kg; in data set [6], 0.12 mg/kg. Besides, the ED20 in data set [7] (setting [9]) was determined as 0.05 mg/kg.

With `O=C1Nc2ccc(Cl)cc2C(c2ccccc2F)=NC1F` (stereo not drawn) [X=Cl, Y=F, Z=H, 3-Fluoro-1,3-dihydro-7-chloro-5-(2-fluorophenyl)-2H-1,4-benzodiazepin-2-one], the median effective dose (ED50) in data set [3] is 12 mg/kg; in data set [4], 200 mg/kg; in data set [6], 0.42 mg/kg. Further, in data set [7] (setting [9]), the ED20 is 0.48 mg/kg.

Take `CCN1C(=O)C(F)N=C(c2ccccc2)c2cc(Cl)ccc21` (stereo not drawn) [X=Cl, Y=H, Z=C2 H5, 3-Fluoro-1,3-dihydro-1-ethyl-7-chloro-5-phenyl-2H-1,4-benzodiazepin-2-one]: the ED50 in data set [2] was less than 0.24 mg/kg; in data set [3] it was 12 mg/kg; in data set [4], greater than 324 mg/kg; in data set [6], 0.56 mg/kg. Besides, the ED20 in data set [7] (setting [9]) came out at 0.45 mg/kg.

Take `C=CCN1C(=O)C(F)N=C(c2ccccc2)c2cc(Cl)ccc21` (stereo not drawn) [X=Cl, Y=H, Z=CH2 CHCH2, 3-Fluoro-1-(allyl)-7-chloro-5-phenyl-2H-1,4-benzodiazepin-2-one]: the ED50 in data set [2] was less than 1 mg/kg; in data set [3], 20 mg/kg; in data set [4] it was 100 mg/kg; in data set [6], 6.1 mg/kg. For the same compound, in data set [7] (setting [9]), the ED20 was found to be 2.9 mg/kg.

Take `CN1C(=O)C(F)N=C(c2ccccc2)c2cc(Cl)ccc21` (stereo not drawn) [X=Cl, Y=H, Z=CH3, 3-Fluoro-1,3-dihydro-1-methyl-7-chloro-5-phenyl-2H-1,4-benzodiazepin-2-one]: the ED50 in data set [2] amounted to 0.25 mg/kg; in data set [3], 5 mg/kg; in data set [4], 121 mg/kg; in data set [5], 0.45 mg/kg; in data set [6], 0.18 mg/kg. Also, the ED20 in data set [7] (setting [9]) amounted to 0.25 mg/kg.

On to `O=C1Nc2ccc(Cl)cc2C(c2ccccc2)=NC1F` (stereo not drawn) [X=Cl, Y=H, Z=H, 3-Fluoro-1,3-dihydro-7-chloro-5-phenyl-2H-1,4-benzodiazepin-2-one], for which the ED50 in data set [2] worked out at 0.1 mg/kg; in data set [3], 2.6 mg/kg; in data set [6] it was 0.39 mg/kg. The ED20 in data set [7] (1 h, 60 minutes (footnote d), read-out: MAST, ED20% (at 60 minutes)) worked out at 0.37 mg/kg.

As to `CNC(=O)N1C(=O)C(F)N=C(c2ccccc2)c2cc(Cl)ccc21` (stereo not drawn) [X=Cl, Y=H, Z=[drawing 57]], the ED50 is less than 4 mg/kg in data set [3] and 36 mg/kg in data set [4].

On to `CCN(CC)CCN1C(=O)CN=C(c2ccccc2F)c2cc(Cl)ccc21` [flurazepam], for which the metabolism entry in data set [8] was “metabolized in man and other animals by oxidative attack at the 3-position”.

Regarding `O=C1CN=C(c2ccccc2)c2cc([N+](=O)[O-])ccc2N1` [nitrazepam], the metabolism result in data set [8] was “metabolized in man and other animals by oxidative attack at the 3-position”.
